Like-named read-outs stand apart in the source and are kept apart here.
Legend:
[1] = type: in vivo; settings: for Abdominal tone / Body weight after 1° dose / Body weight after 4° dose / Limb tone / Vocalization: QID q6h; for Piloerection: animals of 4, after 4° dose; for Vocalization: animals of 4
Procedure: A maximum tolerable dose (MTD) assessment was conducted to evaluate the tolerability of MB076 with meropenem and cilastatin combination. Neutropenic uninfected female ICR mice were used. Meropenem combined with cilastatin was subcutaneously (SC) administered followed by intravenous (IV) administration of MB076 within 10 min. Doses were administered four times (QID) with 6 h intervals (q6h) for one day. Animals were monitored for acute symptoms after the first dose administration and cage side observations were recorded for the subsequent QID doses. Moreover, the body weight of each animal was recorded daily.

[2] = system: Klebsiella pneumonia/BAA-1705; assay: MIC of MB076 alone or in combination with cefepime or meropenem; type: cell-based; settings: Klebsiella pneumoniae, BAA1705; single agent; read-out: MIC
Procedure: (§1) MICs were determined by the Agar microdilution method, following CLSI guidelines. Compounds were tested at fixed concentration of 4 ug/ml in combination with cefepime.

[3] = system: Klebsiella pneumonia/FDA-CDC AR-BANK#0098; assay: as above; type: cell-based; settings: Klebsiella pneumoniae; single agent; read-out: MIC
Procedure: as §1

[4] = system: Klebsiella pneumonia/FDA-CDC AR-BANK#0097; assay: as above; type: cell-based; settings: Klebsiella pneumoniae; single agent; read-out: MIC
Procedure: as §1

A. baumannii 0057 = assay: MIC with cefepime, agar microdilution, CLSI; type: cell-based; settings: compound fixed at 4 ug/ml; ADC-7
Summary of the method: (§2)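 Fixed 4 ug/ml compound + cefepime; agar microdilution, CLSI.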

K. pneumoniae 266 = assay: MIC with cefepime, agar microdilution, CLSI; type: cell-based; settings: compound fixed at 4 ug/ml; SHV-5
Summary of the method: as §2

[5] = MEM 500 mg/Kg + cilastatin 200 mg/Kg (SC) + MB076 25 mg/Kg (IV)
[6] = MEM 500 mg/Kg + cilastatin 200 mg/Kg (SC) + MB076 50 mg/Kg (IV)
[7] = MEM 1000 mg/Kg + cilastatin 200 mg/Kg (SC) + MB076 25 mg/Kg (IV)
[8] = MEM 1000 mg/Kg + cilastatin 200 mg/Kg (SC) + MB076 50 mg/Kg (IV)
[9] = MEM 1000 mg/Kg + cilastatin 200 mg/Kg (SC) + MB076 100 mg/Kg (IV)

SMILES: Nc1nnc(SCC(=O)NC(Cn2cc(C(=O)O)nn2)B(O)O)s1 (stereo not drawn) [MB076]
- Abdominal tone [1, 5]: Mild
- Body weight after 1° dose [1, 5]: 23
- Body weight after 4° dose [1, 5]: 22
- Limb tone [1, 5]: Mild
- Abdominal tone [1, 6]: increased
- Body weight after 1° dose [1, 6]: 23
- Body weight after 4° dose [1, 6]: 22.2
- Limb tone [1, 6]: Mild
- Abdominal tone [1, 7]: Mild
- Body weight after 1° dose [1, 7]: 23.2
- Body weight after 4° dose [1, 7]: 21.7
- Limb tone [1, 7]: Mild
- Abdominal tone [1, 8]: Mild
- Body weight after 1° dose [1, 8]: 23
- Body weight after 4° dose [1, 8]: 22
- Limb tone [1, 8]: Mild
- Abdominal tone [1, 9]: Mild
- Body weight after 1° dose [1, 9]: 23
- Body weight after 4° dose [1, 9]: 22
- Limb tone [1, 9]: increased and Mild
- Acute toxicity or mortality ([1]; all tested dose groups, MB076 IV with meropenem + cilastatin SC, QID q6h one day, neutropenic uninfected female ICR mice): No acute toxicity or mortality was observed
- Piloerection [1, 5]: 4/4 after
- Piloerection [1, 6]: 4/4 after
- Piloerection [1, 7]: 4/4 after
- Piloerection [1, 8]: 4/4 after
- Piloerection [1, 9]: 4/4 after
- Vocalization [1, 5]: 1/4
- Vocalization [1, 6]: 0/4
- Vocalization [1, 7]: 2/4
- Vocalization [1, 8]: 3/4
- Vocalization [1, 9]: 0/4
- MIC [2]: > 32 µg/mL
- MIC [3]: > 32 µg/mL
- MIC [4]: > 32 µg/mL
- MIC of cefepime in combination with compound (A. baumannii 0057): 64 µg/mL
- MIC of cefepime in combination with compound (K. pneumoniae 266): < 0.25 µg/mL
